Measured values: the supplement of paper PMC10307832

Key:
Experiment in all cases: relative viability (nuclei count vs DMSO), 5 days (fraction); higher = more cells survive
Serdemetan + Dasatinib = compound: c1ccc2c(CCNc3ccc(Nc4ccncc4)cc3)c[nH]c2c1 [Serdemetan] + Cc1nc(Nc2ncc(C(=O)Nc3c(C)cccc3Cl)s2)cc(N2CCN(CCO)CC2)n1 [Dasatinib] (partner 0.075 µM)
Summary of the method: (§1)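 Dosing by pin tool came one day after lung cancer cell lines were seeded in 1536-well plates, using either one drug or a fixed anchor-drug dose plus five library-drug doses (not always all listed) in √10 steps. After 5 days, nuclei were counted on 4× images. Relative viability is treated-well nuclei count divided by vehicle-well nuclei count, and values are medians of duplicate plates.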

Serdemetan + Luminespib = compound: c1ccc2c(CCNc3ccc(Nc4ccncc4)cc3)c[nH]c2c1 [Serdemetan] + CCNC(=O)c1noc(-c2cc(C(C)C)c(O)cc2O)c1-c1ccc(CN2CCOCC2)cc1 [Luminespib] (partner 0.01 µM)
Summary of the method: as §1

Selisistat + Bortezomib = compound: C1CC(C2=C(C1)C3=C(N2)C=CC(=C3)Cl)C(=O)N [Selisistat] + CC(C)C[C@H](NC(=O)[C@H](Cc1ccccc1)NC(=O)c1cnccn1)B(O)O [Bortezomib] (partner 0.002 µM)
Summary of the method: as §1

Selisistat + Decitabine = compound: C1CC(C2=C(C1)C3=C(N2)C=CC(=C3)Cl)C(=O)N [Selisistat] + Nc1ncn([C@H]2C[C@H](O)[C@@H](CO)O2)c(=O)n1 [Decitabine] (partner 2 µM)
Summary of the method: as §1

NCI-H2087
relative viability (Serdemetan + Dasatinib; first compound 0.04 µM): 0.979
relative viability (Serdemetan + Dasatinib; first compound 0.1265 µM): 0.712
relative viability (Serdemetan + Dasatinib; first compound 0.4 µM): 0.763
relative viability (Serdemetan + Dasatinib; first compound 1.265 µM): 0.418
relative viability (Serdemetan + Dasatinib; first compound 4 µM): 0.27
relative viability (Serdemetan + Luminespib; first compound 0.04 µM): 0.176
relative viability (Serdemetan + Luminespib; first compound 0.1265 µM): 0.147
relative viability (Serdemetan + Luminespib; first compound 0.4 µM): 0.168
relative viability (Serdemetan + Luminespib; first compound 1.265 µM): 0.184
relative viability (Serdemetan + Luminespib; first compound 4 µM): 0.123
relative viability (Selisistat + Bortezomib; first compound 0.4 µM): 0.738
relative viability (Selisistat + Bortezomib; first compound 1.265 µM): 0.709
relative viability (Selisistat + Bortezomib; first compound 4 µM): 0.734
relative viability (Selisistat + Bortezomib; first compound 12.65 µM): 0.806
relative viability (Selisistat + Bortezomib; first compound 40 µM): 0.719
relative viability (Selisistat + Decitabine; first compound 0.4 µM): 0.34
relative viability (Selisistat + Decitabine; first compound 1.265 µM): 0.295
relative viability (Selisistat + Decitabine; first compound 12.65 µM): 0.263
relative viability (Selisistat + Decitabine; first compound 40 µM): 0.234

NCI-H2126
relative viability (Serdemetan + Dasatinib; first compound 0.04 µM): 0.643
relative viability (Serdemetan + Dasatinib; first compound 0.1265 µM): 0.665
relative viability (Serdemetan + Dasatinib; first compound 0.4 µM): 0.517
relative viability (Serdemetan + Dasatinib; first compound 1.265 µM): 0.467
relative viability (Serdemetan + Dasatinib; first compound 4 µM): 0.557
relative viability (Serdemetan + Luminespib; first compound 0.04 µM): 0.983
relative viability (Serdemetan + Luminespib; first compound 0.1265 µM): 0.964
relative viability (Serdemetan + Luminespib; first compound 0.4 µM): 0.9
relative viability (Serdemetan + Luminespib; first compound 1.265 µM): 0.88
relative viability (Serdemetan + Luminespib; first compound 4 µM): 1.01
relative viability (Selisistat + Bortezomib; first compound 0.4 µM): 1.2
relative viability (Selisistat + Bortezomib; first compound 1.265 µM): 1.15
relative viability (Selisistat + Bortezomib; first compound 4 µM): 1.12
relative viability (Selisistat + Bortezomib; first compound 12.65 µM): 1.12
relative viability (Selisistat + Bortezomib; first compound 40 µM): 1.17
relative viability (Selisistat + Decitabine; first compound 0.4 µM): 0.618
relative viability (Selisistat + Decitabine; first compound 1.265 µM): 0.574
relative viability (Selisistat + Decitabine; first compound 4 µM): 0.579
relative viability (Selisistat + Decitabine; first compound 12.65 µM): 0.599
relative viability (Selisistat + Decitabine; first compound 40 µM): 0.606

NCI-H2347
relative viability (Serdemetan + Dasatinib; first compound 0.04 µM): 0.336
relative viability (Serdemetan + Dasatinib; first compound 0.1265 µM): 0.305
relative viability (Serdemetan + Dasatinib; first compound 0.4 µM): 0.286
relative viability (Serdemetan + Dasatinib; first compound 1.265 µM): 0.303
relative viability (Serdemetan + Dasatinib; first compound 4 µM): 0.237
relative viability (Serdemetan + Luminespib; first compound 0.04 µM): 1.08
relative viability (Serdemetan + Luminespib; first compound 0.1265 µM): 0.56
relative viability (Serdemetan + Luminespib; first compound 0.4 µM): 0.215
relative viability (Serdemetan + Luminespib; first compound 1.265 µM): 0.264
relative viability (Serdemetan + Luminespib; first compound 4 µM): 0.292
relative viability (Selisistat + Bortezomib; first compound 0.4 µM): 0.772
relative viability (Selisistat + Bortezomib; first compound 1.265 µM): 1.11
relative viability (Selisistat + Bortezomib; first compound 12.65 µM): 0.907
relative viability (Selisistat + Bortezomib; first compound 40 µM): 0.831
relative viability (Selisistat + Decitabine; first compound 0.4 µM): 0.695
relative viability (Selisistat + Decitabine; first compound 1.265 µM): 0.633
relative viability (Selisistat + Decitabine; first compound 12.65 µM): 0.677
relative viability (Selisistat + Decitabine; first compound 40 µM): 0.624

NCI-H2405
relative viability (Serdemetan + Dasatinib; first compound 0.04 µM): 0.173
relative viability (Serdemetan + Dasatinib; first compound 0.1265 µM): 0.217
relative viability (Serdemetan + Dasatinib; first compound 0.4 µM): 0.21
relative viability (Serdemetan + Dasatinib; first compound 1.265 µM): 0.209
relative viability (Serdemetan + Dasatinib; first compound 4 µM): 0.133
relative viability (Serdemetan + Luminespib; first compound 0.04 µM): 0.716
relative viability (Serdemetan + Luminespib; first compound 0.1265 µM): 0.664
relative viability (Serdemetan + Luminespib; first compound 0.4 µM): 0.64
relative viability (Serdemetan + Luminespib; first compound 1.265 µM): 0.573
relative viability (Serdemetan + Luminespib; first compound 4 µM): 0.596
relative viability (Selisistat + Bortezomib; first compound 0.4 µM): 0.985
relative viability (Selisistat + Bortezomib; first compound 1.265 µM): 0.932
relative viability (Selisistat + Bortezomib; first compound 4 µM): 0.854
relative viability (Selisistat + Bortezomib; first compound 12.65 µM): 0.997
relative viability (Selisistat + Bortezomib; first compound 40 µM): 0.88
relative viability (Selisistat + Decitabine; first compound 0.4 µM): 0.881
relative viability (Selisistat + Decitabine; first compound 1.265 µM): 0.78
relative viability (Selisistat + Decitabine; first compound 12.65 µM): 0.748
relative viability (Selisistat + Decitabine; first compound 40 µM): 0.697

NCI-H3122
relative viability (Serdemetan + Dasatinib; first compound 0.04 µM): 0.827
relative viability (Serdemetan + Dasatinib; first compound 0.1265 µM): 0.792
relative viability (Serdemetan + Dasatinib; first compound 0.4 µM): 0.919
relative viability (Serdemetan + Dasatinib; first compound 4 µM): 0.782
relative viability (Serdemetan + Luminespib; first compound 0.04 µM): 0.0976
relative viability (Serdemetan + Luminespib; first compound 0.1265 µM): 0.0835
relative viability (Serdemetan + Luminespib; first compound 0.4 µM): 0.115
relative viability (Serdemetan + Luminespib; first compound 4 µM): 0.101
relative viability (Selisistat + Bortezomib; first compound 0.4 µM): 1
relative viability (Selisistat + Bortezomib; first compound 1.265 µM): 1
relative viability (Selisistat + Bortezomib; first compound 4 µM): 0.837
relative viability (Selisistat + Bortezomib; first compound 12.65 µM): 1.1
relative viability (Selisistat + Bortezomib; first compound 40 µM): 0.995
relative viability (Selisistat + Decitabine; first compound 0.4 µM): 0.387
relative viability (Selisistat + Decitabine; first compound 1.265 µM): 0.502
relative viability (Selisistat + Decitabine; first compound 12.65 µM): 0.499
relative viability (Selisistat + Decitabine; first compound 40 µM): 0.4
